Measurements reported in patent US20090118242A1 (AlgoRx, priority 2002, published 2009).
“And” between values parts separate entries of the source, which are not always exact repeats. Identical values can stand only once.

Key:
[1] = test system: animal models of inflammatory (formalin test) pain; details: administered locally; cited from earlier work
patients = details: cited from earlier work
[2] = set-up: species or system human; details: in vivo
Method: The pharmacokinetic parameters of Cmax, Tmax, AUC (0−tlast) and t½ were evaluated.

[3] = test system: subjects with osteoarthritis of the knee; experiment: Osteoarthritis of the Knee Safety Study: safety and tolerability of intra-articular purified capsaicin with local anesthetic; assay type: in vivo, human
Method: The primary objective of the study was to evaluate the safety and tolerability of intra-articular capsaicin, when co-administered with intra-articular local anesthetic, compared to placebo, in subjects with end-stage osteoarthritis of the knee, already scheduled to receive knee replacements.
The study was designed to include 16 evaluation subjects. […] Sixteen subjects completed the study.
Patients were treated randomly and in double-blind fashion in four treatment groups, with each group having a progressively longer interval between the intra-articular administration of study medication and subsequent total knee replacement (2, 4, 7, and 14 days). […] Gross and microscopic pathology analysis was completed for each treatment group before the next treatment group was treated.
(§1) Each subject had 3 study visits: a Screening Day (Day −7 to −1), the Treatment Day (Day 0), and a Post-Treatment Day (scheduled for Day +2, +4, +7, or +14). On the Treatment Day the subject was randomized, pre-treatment evaluation was performed. The patients were brought into the procedure room, and a VAS pain score was taken (0 mm—no pain, 100 mm—extreme pain). Once the patient had marked his or her pain on the card, he/she was prepped for knee cannulation. Once the cannula was placed, the patient received by intra-articular infiltration, 3 mg/kg (maximum dose of 200 mg) of 2% lignocaine into the knee scheduled to be replaced.
(§2) VAS pain scores as well as verbal reports were taken immediately following administration, as well as prior to knee replacement surgery. No subjects discontinued from the study due to adverse events.

[4] = test system: subjects with osteoarthritis of the knee; experiment: Osteoarthritis of the Knee Safety Study: VAS pain score at the target knee; assay type: in vivo, human
Method: as §1, §2
On the Post-Treatment Day, study evaluation was performed followed by the scheduled knee replacement, with intra-operative bone and soft tissue biopsies performed for subsequent examination. […] This therefore left the 3 placebo and 9 active patients from the 4 day, 7 day, and 14 day cohorts.

rats = details: systemic, final doses of 25 mg/kg or less; cited from earlier work
[5] = test system: subjects undergoing transpositional osteotomy (bunionectomy); experiment: Bunionectomy Efficacy Study: VAS pain at operation site and rescue medication; assay type: in vivo, human; details: for VAS pain score at operation site (mean +/− SEM): 1000 μg into wound, n = 11
Method: The primary efficacy endpoint was the proportion of subjects in each treatment group requiring opioid analgesia in the first 24 hours post-operatively. The proportions were compared amongst treatment groups using the Cochran-Haenszel test. Secondary efficacy end points included: i) proportion of subjects in each treatment group requiring opioid analgesia in the first 36 hour period post-operatively (Similarly, the proportions were compared amongst treatment groups using the Cochran-Haenszel test); ii) proportion of subjects in each treatment group requiring opioid analgesia in the 10 day period post-operatively (Similarly, the proportions were compared amongst treatment groups using the Cochran-Haenszel test); iii) time to first usage of opioid analgesia in each treatment group (a survival analysis approach will be used: the product-limit (Kaplan-Meier) method will be applied to time to first usage of opioid analgesia. The median time to first usage of opioid analgesia will be estimated in both treatment groups. Pairwise comparisons will be performed to test for equality of the survival curves between the 2 treatment groups using both the log-rank and the Wilcoxon test); iv) total usage of analgesia in each treatment group (the total usage of analgesia will be compared by an analysis of variance with treatment and center as independent variables. A pairwise comparison will be performed between the treatment groups); and v) VAS, assessment of pain at the site of operation in each treatment group. (The VAS score at each time point will be compared by an analysis of variance with treatment and center as independent variables. A pairwise comparison will be performed between the treatment groups). […] The efficacy analysis was performed on the data obtained ten days postoperatively. The safety analysis was performed based on the safety data for the entire study, including the 6 week and 12 week follow-up periods. The blind was broken at the time the efficacy analysis was performed. However, the individual treatment assignment was available to the statistical analysis group only. All other personnel involved in the study, including the Investigator, study monitor and proprietary staff, remained blinded until the entire study was completed.
The study was designed to include 40 evaluation subjects. […] Each subject had six (6) study visits: a Screening Day (Day −28 to −1), an Operation Day (Day 0), and four (4) Follow-up visits (scheduled for Days 3, 10 and weeks 6 and 12).
On Operation Day (Day 0) the following was performed: a) Pre-operation: Prior to the initiation of an ankle block, inclusion/exclusion criteria assessment was performed. […] Immediately prior to wound closure, the Investigator slowly dripped the study medication (4 mL) from a syringe into the wound, ensuring even tissue exposure. The wound was then be closed according to normal practices and procedures.
In the 24 hours following administration of study medication, vital signs (supine pulse rate and blood pressure) were recorded at 1, 2, 4 and 24 hours post administration. VAS assessment of pain at the operation site was performed at 1, 4, 8, 12 and 24 hours post administration. In those instances where VAS measurements coincide with blood sampling procedures, the VAS assessment was performed first. […] The quantity of each blood sample was 10 mL. Laboratory safety assessments, e.g., haematology, biochemistry, urinalysis were performed at 24 hours post administration. Adverse events were spontaneously reported by the subject and recorded. Rescue analgesia medication was provided to the subject if required (initially diclofenac 50 mg, repeated at 8-hourly intervals if necessary). When diclofenac was judged by the Investigator to provide inadequate pain relief then the subject was provided with alfentanil 1 mg, repeated at 6 hourly intervals, if necessary.

[6] = 10, 100, 300 μg intra-articular
[7] = 1000 μg prior to wound closure, n=11

## CN(C)CCC=C1c2ccccc2CCc2ccccc21 [amitriptyline]
[1]
  local antinociceptive action: produced local antinociceptive actions

## CNCCCN1c2ccccc2CCc2ccccc21 [desipramine]
[1]
  local antinociceptive action: produced local antinociceptive actions

## CN1C(C(=O)Nc2ccccn2)=C(O)c2ccccc2S1(=O)=O [piroxicam]
patients
  patients experiencing gross bleeding and ulceration: up to 4%

## COc1cc(CNC(=O)CCCC/C=C/C(C)C)ccc1O [purified capsaicin, N-(4-hydroxy-3-methoxybenzyl)-8-methylnon-trans-6-enamide]
[2]
  plasma concentrations in the 10 μg dose group compared with the 100 μg or 300 μg dose groups: clearly lower
[3]; 100 μg dose group
  duration of post-administration (hyper)algesic pain, individual subject: 9 min
[3]; 300 μg dose group
  duration of post-administration (hyper)algesic pain, individual subjects: 17 minutes and 25 minutes (2×) and 42 minutes
[3]; [6]
  effects on laboratory safety parameters or vital signs: no treatment related effects on laboratory safety parameters or vital signs
  effects on soft tissue, cartilage, or bone upon histopathological examination: no treatment related effects on soft tissue, cartilage, or bone
  erythema, edema, or hemorrhage at the site of injection: no treatment related signs of erythema, edema, or hemorrhage
  leakage of study drug from the joint space: low leakage
  systemic side effects: No treatment related systemic side effects
[3]; knee tissue at replacement 2-14 days after dose
  gross and microscopic pathology: normal
[4]; 9 active patients of the 4, 7 and 14 day cohorts, 10-300 μg pooled
  VAS reduction, prior to administration versus day of surgery: 62±14%
[4]; all 3 capsaicin dose groups
  median decrease from baseline to pre-operative time point in VAS for pain at target knee, versus placebo: substantially greater
[4]; any of the dose levels (10 μg, 100 μg, 300 μg)
  treatment related indication of efficacy (VAS): No clear treatment related indication of efficacy
rats
  effect on pain threshold: did not elevate the pain threshold above normal range
[5]; 8 hr
  VAS pain score at operation site (mean +/− SEM): 5.5 +/− 2.3
[5]; 12 hr
  VAS pain score at operation site (mean +/− SEM): 8.2 +/− 3.8
[5]; 24 hr
  VAS pain score at operation site (mean +/− SEM): 1.9 +/− 1.0
[5]; 48 hr
  VAS pain score at operation site (mean +/− SEM): 5.9 +/− 2.5
[5]; [7]
  subjects who did not rescue in 72 hours: 6 subjects
  time at which individual subject required rescue: 1 h and 4 h and 5 h and 8 h and 12 h
